Source: patent US9144239B2, “Macrocyclic picolinamides as fungicides” (DOW AGROSCIENCES LLC, priority 2012, dated 2015)
Where two headings read alike, the source gives them in different places.

Columns and labels:
Assay type in all cases: in vivo
[1] = test system: Puccinia triticina; synonym: Puccinia recondita f. sp. tritici; assay: Fungicidal activity: wheat brown rust (PUCCRT), wheat seedlings; settings: 100 ppm, wheat
Protocol: Technical grades of materials were dissolved in acetone, which were then mixed with nine volumes of water containing 110 ppm Triton X-100. The fungicide solutions were applied onto wheat seedlings using an automated booth sprayer to run-off. All sprayed plants were allowed to air dry prior to further handling. Wheat plants (variety Yuma) were grown from seed in a greenhouse in 50% mineral soil/50% soil-less Metro mix until the first leaf was fully emerged, with 7-10 seedlings per pot. These plants were inoculated with an aqueous spore suspension of Septoria tritici either prior to or after fungicide treatments. After inoculation the plants were kept in 100% relative humidity (one day in a dark dew chamber followed by two to three days in a lighted dew chamber at 20° C.) to permit spores to germinate and infect the leaf. The plants were then transferred to a greenhouse set at 20° C. for disease to develop. When disease symptoms were fully expressed on the 1st leaves of untreated plants, infection levels were assessed on a scale of 0 to 100 percent disease severity. Percent disease control was calculated using the ratio of disease severity on treated plants relative to untreated plants. Evaluation of Fungicidal Activity: Wheat Brown Rust (Puccinia […]; Synonym: Puccinia recondita f. Sp. Tritici; Bayer Code PUCCRT) Wheat plants (variety Yuma) were grown from seed in a greenhouse in 50% mineral soil/50% soil-less Metro mix until the first leaf was fully emerged, with 7-10 seedlings per pot. These plants were inoculated with an aqueous spore suspension of Puccinia triticina either prior to or after fungicide treatments. After inoculation the plants were kept in a dark dew room at 22° C. with 100% relative humidity overnight to permit spores to germinate and infect the leaf. The plants were then transferred to a greenhouse set at 24° C. for disease to develop. Fungicide formulation, application and disease assessment followed the procedures as described in the Example A.

[2] = test system: Puccinia triticina; synonym: Puccinia recondita f. sp. tritici; assay: Fungicide mobility (dropline mobility test): wheat brown rust (PUCCRT); settings: 1 ug/leaf
Protocol: Evaluation of Fungicide Mobility: Wheat Brown Rust (Puccinia triticina; Synonym: Puccinia recondita f. sp. tritici; Bayer Code PUCCRT) “Yuma” wheat seedlings were used in the test. One mg of compound was dissolved in 9 μl of EC blank (emulsifiable concentrate) and 500 μl of acetone. Acetone was then evaporated overnight by leaving the vial open in a fume hood. Two milliliters of water containing 110 ppm Triton X-100 was added to each vial to prepare application solutions. A 2 μl drop of formulated material was applied to a marked line on the adaxial surface 5 cm from the leaf tip of the primary leaves. The primary leaves were kept in a horizontal position. Each treatment had 6 replicates. Plants were inoculated with PUCCRT 1-day after (1DPM) or 3-day prior to (3DCM) compound applications. When rust was fully expressed on primary leaves on control plants, the zone of treated leaves that was disease-free in the acropetal direction was measured with a ruler and converted to percent of the distance from marked line to leaf tip.

[3] = test system: Mycosphaerella graminicola; anamorph: Septoria tritici; assay: Fungicidal activity: leaf blotch of wheat (SEPTTR), wheat seedlings; settings: Zymoseptoria tritici, 100 ppm, wheat
Protocol: Evaluation of Fungicidal Activity: Leaf Blotch of Wheat (Mycosphaerella Graminicola; Anamorph: Septoria tritici; Bayer Code […]) Technical grades of materials were dissolved in acetone, which were then mixed with nine volumes of water containing 110 ppm Triton X-100. The fungicide solutions were applied onto wheat seedlings using an automated booth sprayer to run-off. All sprayed plants were allowed to air dry prior to further handling. Wheat plants (variety Yuma) were grown from seed in a greenhouse in 50% mineral soil/50% soil-less Metro mix until the first leaf was fully emerged, with 7-10 seedlings per pot. These plants were inoculated with an aqueous spore suspension of Septoria tritici either prior to or after fungicide treatments. After inoculation the plants were kept in 100% relative humidity (one day in a dark dew chamber followed by two to three days in a lighted dew chamber at 20° C.) to permit spores to germinate and infect the leaf. The plants were then transferred to a greenhouse set at 20° C. for disease to develop. When disease symptoms were fully expressed on the 1st leaves of untreated plants, infection levels were assessed on a scale of 0 to 100 percent disease severity. Percent disease control was calculated using the ratio of disease severity on treated plants relative to untreated plants.

[4] = 24 h, 1 Day Protectant, read-out: Disease Control PUCCRT 1DP
[5] = 72 h, 3 Day Curative, read-out: Disease Control PUCCRT 3DC
[6] = 24 h, 1 Day Protectant Mobility, read-out: Dropline Mobility Test PUCCRT 1DPM
[7] = 72 h, 3 Day Curative Mobility, read-out: Dropline Mobility Test PUCCRT 3DCM
[8] = 24 h, 1 Day Protectant, read-out: Disease Control SEPTTR 1DP
[9] = 72 h, 3 Day Curative, read-out: Disease Control SEPTTR 3DC

| Structure (SMILES) | pest or weed control at 100 ppm [1, 4] [%] | pest or weed control at 100 ppm [1, 5] [%] | pest or weed control at 1 µg/leaf [2, 6] [%] | pest or weed control at 1 µg/leaf [2, 7] [%] | pest or weed control at 100 ppm [3, 8] [%] | pest or weed control at 100 ppm [3, 9] [%] |
| --- | --- | --- | --- | --- | --- | --- |
| COc1ccnc(C(=O)N[C@H]2COC[C@H](OCCCC(F)(F)F)[C@@H](OCCCC(F)(F)F)[C@H](C)OC2=O)c1O [Compound 67] | 80 to 100 | 0 to 80 | 0 to 80 | 0 to 80 | 0 to 80 | 0 to 80 |
| COCCC(=O)Oc1c(OC)ccnc1C(=O)N[C@H]1COC[C@H](Oc2ccccc2)[C@@H](Oc2ccccc2)[C@H](C)OC1=O [Compound 235] | 80 to 100 | 80 to 100 | 0 to 80 |  | 80 to 100 | 80 to 100 |
| COCCC(=O)Oc1c(OC)ccnc1C(=O)N[C@H]1COC[C@H](OCC(C)C)[C@@H](OCC(C)C)[C@H](C)OC1=O [Compound 237, 2-(((3S,7S,8S,9S)-7,8-diisobutoxy-9-methyl-2-oxo-1,5-dioxonan-3-yl)carbamoyl)-4-methoxypyridin-3-yl 3-methoxypropanoate] | 80 to 100 | 80 to 100 | 80 to 100 | 80 to 100 | 80 to 100 | 80 to 100 |
| CCCO[C@H]1[C@H](C)OC(=O)[C@@H](NC(=O)c2nccc(OC)c2OCOC(C)=O)COC[C@@H]1OCCC [Compound 61] | 80 to 100 | 80 to 100 | 80 to 100 | 0 to 80 | 80 to 100 | 80 to 100 |
| CCCCO[C@H]1COC[C@H](NC(=O)c2nccc(OC)c2OCOC(C)=O)C(=O)O[C@@H](C)[C@@H]1OC(=O)c1ccccc1 [Compound 69] | 80 to 100 | 80 to 100 | 0 to 80 | 0 to 80 | 80 to 100 | 80 to 100 |
| COc1ccnc(C(=O)N[C@H]2COC[C@H](OC3CCCCC3)[C@@H](O)[C@H](C)OC2=O)c1O [Compound 74] | 0 to 80 | 0 to 80 | 0 to 80 | 0 to 80 | 0 to 80 | 0 to 80 |
| CCCCCO[C@H]1[C@H](C)OC(=O)[C@@H](NC(=O)c2nccc(OC)c2OCOC(C)=O)COC[C@@H]1OCCCCC [Compound 64] | 80 to 100 | 80 to 100 | 0 to 80 | 0 to 80 | 80 to 100 | 80 to 100 |
| COc1ccnc(C(=O)N[C@H]2COC[C@H](Oc3ccc(F)cc3)[C@@H](Oc3ccc(F)cc3)[C@H](C)OC2=O)c1O [Compound 208] | 80 to 100 |  |  |  | 80 to 100 | 0 to 80 |
| CCOCC(=O)OCOc1c(OC)ccnc1C(=O)N[C@H]1COC[C@H](Oc2ccc(F)cc2)[C@@H](Oc2ccc(F)cc2)[C@H](C)OC1=O [Compound 230] | 80 to 100 | 80 to 100 |  |  | 80 to 100 | 80 to 100 |
| COc1ccnc(C(=O)N[C@@H]2COC[C@H](OCC(C)C)[C@@H](OCC(C)C)COC2=O)c1OCOC(C)=O [Compound 14] | 80 to 100 | 0 to 80 |  |  | 0 to 80 |  |
| COc1ccnc(C(=O)N[C@H]2COC[C@H](OCc3ccccc3)[C@@H](OCc3ccccc3)COC2=O)c1O [Compound 5, N-((3S,7S,8S)-7,8-bis(benzyloxy)-2-oxo-1,5-dioxonan-3-yl)-3-hydroxy-4-methoxypicolinamide] | 0 to 80 | 0 to 80 |  |  | 0 to 80 | 0 to 80 |
| COc1ccnc(C(=O)N[C@H]2COC[C@H](Oc3ccccc3)[C@@H](O)[C@H](C)OC2=O)c1O [Compound 211] | 0 to 80 |  |  |  |  | 0 to 80 |
| COc1ccnc(C(=O)N[C@@H]2COC[C@H](OCC(C)C)[C@@H](OCC(C)C)[C@@H](COCC(C)C)OC2=O)c1O [Compound 16] | 0 to 80 | 0 to 80 |  |  | 0 to 80 |  |
| COc1ccnc(C(=O)N[C@@H]2COC[C@H](OCc3ccccc3)[C@@H](OCc3ccccc3)[C@@H](C)OC2=O)c1OCOC(C)=O [Compound 31] | 0 to 80 | 0 to 80 |  |  | 0 to 80 | 0 to 80 |
| COc1ccnc(C(=O)N[C@H]2CO[C@H](C)[C@H]3OC(C)(C)O[C@@H]3[C@@H](C)OC2=O)c1OCOC(C)=O [Compound 29] | 0 to 80 | 0 to 80 |  |  | 0 to 80 | 0 to 80 |
| COc1ccnc(C(=O)N[C@H]2COC[C@H](OCC(C)C)[C@@H](OCC(C)C)[C@@H](COCC(C)C)OC2=O)c1OCOC(C)=O [Compound 17] | 0 to 80 | 0 to 80 |  |  | 0 to 80 |  |
| COc1ccnc(C(=O)N[C@H]2CO[C@@H](C)[C@H](OCc3ccccc3)[C@@H](OCc3ccccc3)[C@H](C)OC2=O)c1O [Compound 25] | 80 to 100 | 0 to 80 |  |  | 80 to 100 | 0 to 80 |
| CC[C@@H]1OC(=O)[C@@H](NC(=O)c2nccc(OC)c2OCOC(C)=O)COC[C@H](OCC(C)C)[C@H]1OCC(C)C [Compound 23] | 80 to 100 | 80 to 100 |  |  | 80 to 100 | 80 to 100 |
| C=C(C)CO[C@H]1COC[C@@H](NC(=O)c2nccc(OC)c2O)C(=O)OC[C@@H]1OCC(=C)C [Compound 9] | 0 to 80 | 0 to 80 |  |  | 0 to 80 | 0 to 80 |
| COc1ccnc(C(=O)N[C@H]2COC[C@H](OCc3ccccc3)[C@@H](OCc3ccccc3)[C@@H](C)OC2=O)c1OCOC(C)=O [Compound 51] | 0 to 80 | 0 to 80 |  |  | 0 to 80 | 0 to 80 |
| COc1ccnc(C(=O)N[C@H]2COC[C@H](OCC(C)C)[C@@H](OCC(C)C)[C@@H](COCC(C)C)OC2=O)c1O [Compound 15, N-((3S,7S,8R,9R)-7,8-diisobutoxy-9-(isobutoxymethyl)-2-oxo-1,5-dioxonan-3-yl)-3-hydroxy-4-methoxypicolinamide] |  | 0 to 80 |  |  | 0 to 80 |  |
| COc1ccnc(C(=O)N[C@H]2CO[C@@H](C)[C@H](OCC(C)C)[C@@H](OCC(C)C)COC2=O)c1OCOC(=O)C(C)C [Compound 7] | 80 to 100 |  |  |  | 80 to 100 | 80 to 100 |
| COc1ccnc(C(=O)N[C@H]2CO[C@@H](C)C(OCc3ccccc3)C(OCc3ccccc3)[C@H](C)OC2=O)c1OCOC(C)=O (stereo partly drawn) [Compound 28] | 80 to 100 | 80 to 100 |  |  | 80 to 100 | 80 to 100 |
